According to patent US20160374944A1, “COMPOSITIONS AND METHODS FOR TREATING AND PREVENTING CANCER BY TARGETING AND INHIBITING CANCER STEM CELLS” (priority 2011, published 2016):

Assays:
[1] = tested on: Gli1 and Gli2 in pancreatic CSCs; test: nuclear translocation of Gli1 and Gli2 (immunostaining); format: cell-based, human; settings: EGCG 40 or 60 μM, 24 h
Description: Pancreatic CSCs were treated with or without EGCG (40 or 60 μM) for 24 h. At the end of incubation period, CSCs were fixed with paraformaldehyde, permeabilized with titron X100, and blocked with 5% normal goat serum. Cells were then treated with either anti-Gli1 or anti-Gli2 antibody, followed by secondary antibody plus DAPI. Stained cells were mounted and visualized under a fluorescence microscope. Blue fluorescence of DAPI was changed to red color for a better contrast.

[2] = tested on: Prostate CSCs; test: spheroid formation and cell viability in spheroids (trypan blue); format: cell-based, human; settings: 7 and 14 days, embelin 0-6 μM, rottlerin 0-2 μM
Description: (§1) In particular, embelin is shown to inhibit spheroid and colony formation, and induce caspase-3 and apoptosis. (A) Prostate CSCs were grown in CSC medium and treated with embelin (0-6 μM) for 7 days to obtain primary spheroids. At the end of incubation period, spheroids were collected, reseeded and treated with embelin for another week to obtain secondary spheroids. Cell viability in spheroids was measured by trypan blue assay at the end of 7 and 14 days. […] (B) Prostate CSCs were seeded in soft agar and treated with embelin (0-6 μM) for 21 days. […] (C and D) Activation of caspase-3 and induction of apoptosis is shown.
as §1, with “(A)” for “In particular, embelin is shown to inhibit spheroid and colony formation, and induce caspase-3 and apoptosis. (A)”, “rottlerin (0-2” for “embelin (0-6”, “rottlerin” for “embelin”, “apoptosis.” for “apoptosis is shown.”
The effects of embelin on growth of prostate CSCs was studied by measuring cell viability and colony formation, as shown in FIGS. 9A and 9B. […]

[3] = tested on: Prostate CSCs; test: caspase-3 activity; format: cell-based, human; settings: 24 h; embelin 0-6 μM, rottlerin 0-2 μM
Description: as §1
as §1, with “(A)” for “In particular, embelin is shown to inhibit spheroid and colony formation, and induce caspase-3 and apoptosis. (A)”, “rottlerin (0-2” for “embelin (0-6”, “rottlerin” for “embelin”, “apoptosis.” for “apoptosis is shown.”

[4] = tested on: Prostate CSCs; test: apoptosis; format: cell-based, human; settings: embelin 0-6 μM 48 h; rottlerin 0-2 μM 24 h
Description: as §1
as §1, with “(A)” for “In particular, embelin is shown to inhibit spheroid and colony formation, and induce caspase-3 and apoptosis. (A)”, “rottlerin (0-2” for “embelin (0-6”, “rottlerin” for “embelin”, “apoptosis.” for “apoptosis is shown.”

[5] = tested on: Prostate CSCs; test: gene expression by qRT-PCR; format: cell-based, human; settings: 24 h
Description: FIG. 15 is a graph showing that rottlerin inhibits the expression of survivin, XIAP, Bcl-2 and Bcl-XL in prostate CSCs. Prostate CSCs were treated with rottlerin (0-2 μM) for 24 h, and the expression of survivin, XIAP, Bcl-2 and Bcl-XL was measured by the q-RT-PCR. […] Data were normalized with GAPDH.
FIG. 16 is a graph showing the regulation by rottlerin of cMyc, Nanog, Oct3/4 and Sox-2 in prostate CSCs. Prostate CSCs were treated with rottlerin (0-1 μM) for 24 h. The expression of cMyc, Nanog, Oct3/4 and Sox-2 was measured by qRT-PCR. […] Data were normalized with GAPDH.
(§2) FIG. 17 graphs showing the regulation of Shh, Notch and TGFβ pathways by rottlerin. […] The expression of Patched-1, Patched-2, SMO, Gli1 and Gli2 was measured by qRT-PCR. […] Data were normalized with GAPDH. (D) Prostate CSCs were treated with rottlerin (0-1 μM) for 24 h. The expression of Notch1, Notch3 and JAG1 was measured by qRT-PCR. (E) TCF/LEF-1, Gli and Notch reporter activities. Prostate CSCs were transduced with a mixture of TCF/LEF1-, Gli-, or Notch-responsive firefly luciferase construct and Renilla luciferase construct (40:1) along with lipofectamine. After transduction, medium was changed and CSCs were treated with rottlerin (0-2 μM) for 24 h. […] (F) Immunofluorescence analysis of Gli1 and Gli2 expression in prostate CSCs. Green=Gli1 or Gli2; red=nucleus.

[6] = tested on: Gli reporter activity in prostate CSCs; test: Gli-responsive dual luciferase reporter; format: cell-based, human; settings: rottlerin 0-2 μM, 24 h, dual luciferase assay
Description: as §2

[7] = tested on: TCF/LEF-1 reporter activity in prostate CSCs; test: TCF/LEF1-responsive dual luciferase reporter; format: cell-based, human; settings: rottlerin 0-2 μM, 24 h, dual luciferase assay
Description: as §2

[8] = tested on: Gli1 and Gli2 in prostate CSCs; test: immunofluorescence analysis of Gli1 and Gli2 expression; format: cell-based, human; settings: measured by IFC
Description: as §2

[9] = tested on: Prostate CSCs; test: prostate CSCs xenografted sub-cutaneously in NSG mice; format: in vivo; settings: NOD/SCID/IL2R gamma mice, 20 mg/kg, 6 weeks
Description: (§3) (A) Pancreatic CSCs were orthotopically implanted in pancreas of NSG mice, and treated with or without sulforaphane 20 mg/kg, for 6 weeks, (B and C) Pancreatic CSCs were xenografted sub-cutaneously in NSG mice, and treated with or without rottlerin and embelin 20 mg/kg, for 6 weeks, (D and E) Prostate CSCs were xenografted sub-cutaneously in NSG mice, and treated with or without rottlerin and embelin 20 mg/kg, for 6 weeks. At the end of the treatment, weights of tumors in treated mice were compared with control mice.

[10] = tested on: Brain CSCs; test: cell viability by XTT assay; format: cell-based; settings: 3 days; 0-20 μM
Description: (A-B) Brain CSCs were treated with sulforaphane (0-20 μM), and honokiol (0-20 μM) for 3 days, and cell viability was measured by XTT assay.

[11] = tested on: Pancreatic CSCs; settings: NOD/SCID/IL2R gamma mice, 20 mg/kg, 6 weeks
Description: as §3

[12] = tested on: human pancreatic cancer cells
[13] = tested on: pancreatic cancer; settings: KrasG12D mice
[14] = tested on: pancreatic cancer stem cells

SMILES: O=C(O[C@@H]1Cc2c(O)cc(O)cc2O[C@@H]1c1cc(O)c(O)c(O)c1)c1cc(O)c(O)c(O)c1 [EGCG, epigallocatechin gallate]
- nuclear expression of Gli1 protein [1]: inhibited the nuclear expression
- nuclear expression of Gli2 protein [1]: inhibited the nuclear expression

SMILES: CC(=O)c1c(O)c(C)c(O)c(Cc2c(O)c3c(c(C(=O)/C=C/c4ccccc4)c2O)OC(C)(C)C=C3)c1O [rottlerin]
- size of primary and secondary spheroids in suspension ([2]; data not shown): inhibited the size
- cell viability in spheroids ([2]; primary and secondary spheroids, trypan blue): inhibited
- caspase-3 activity [3]: induces
- apoptosis [4]: induces
- expression of Bcl-2 ([5]; normalized with GAPDH): inhibited the expression
- expression of Bcl-XL ([5]; normalized with GAPDH): inhibited the expression
- expression of Gli1 ([5]; normalized with GAPDH): inhibited the expression
- expression of Gli2 ([5]; normalized with GAPDH): inhibited the expression
- expression of Nanog ([5]; normalized with GAPDH): inhibited the expression
- expression of Oct3/4 ([5]; normalized with GAPDH): inhibited the expression
- expression of Patched-1 ([5]; normalized with GAPDH): inhibited the expression
- expression of Patched-2 ([5]; normalized with GAPDH): inhibited the expression
- expression of SMO ([5]; normalized with GAPDH): inhibited the expression
- expression of Sox-2 ([5]; normalized with GAPDH): inhibited the expression
- expression of XIAP ([5]; normalized with GAPDH): inhibited the expression
- expression of cMyc ([5]; normalized with GAPDH): inhibited the expression
- expression of survivin ([5]; normalized with GAPDH): inhibited the expression
- expression of JAG1 ([5]; rottlerin 0-1 μM): inhibited the expression
- expression of Notch1 ([5]; rottlerin 0-1 μM): inhibited the expression
- expression of Notch3 ([5]; rottlerin 0-1 μM): inhibited the expression
- Gli responsive reporter activity [6]: inhibited the TCF/LEF1, Gli1 and Notch responsive reporter activities in a dose-dependent manner
- TCF/LEF1 responsive reporter activity [7]: inhibited the TCF/LEF1, Gli1 and Notch responsive reporter activities in a dose-dependent manner
- nuclear expression of constitutively active Gli1 [8]: inhibited the nuclear expression
- nuclear expression of constitutively active Gli2 [8]: inhibited the nuclear expression
- tumor growth (weights of tumors vs control mice) [9]: inhibit tumor growth

SMILES: C[S+]([O-])CCCCN=C=S (centres unmarked) [sulforaphane]
- cell viability [10]: inhibit cell viability
- tumor growth (weights of tumors vs control mice) [11]: inhibit tumor growth
- growth of human pancreatic cancer cells [12]: inhibits the growth
- pancreatic cancer progression [13]: inhibits the growth of pancreatic cancer progression
- growth of pancreatic cancer stem cells [14]: inhibits the growth
